Results on one compound are retold here after patent US20090105206A1, “Copper Melphalan And Copper Tegafur As Anti-Tumor Agents” (priority 2004, published 2009).

The test has as its system murine renal cell carcinoma (RENCA) tumor cells applied orthotopically. The experiment in a line: Example 3: murine renal cell carcinoma model (RENCA), substance Day 10-18. The format is in vivo, Balb/c mouse. Conditions: 5 and 7.5 mg/kg per day i.p., Day 10-18, findings Day 19. As for the experimental part: Using a murine renal cell carcinoma model (RENCA) of the Balb/c mouse a test of the effectiveness of mel-Cu-mel was carried out on the primary tumor, the metastases and the vessel density. For this the tumor cells were applied orthotopically into the left-hand peri-renal capsule of syngenic mice, the administered dose per day of treatment being: 5 mg/kg mouse and 7.5 mg/kg mouse, 5 animals per dose plus 5 animals for solvent control. The anti-tumor agent according to the invention Cu(mel)2 was applied intraperitonial. The treatment model was as follows:
As a control 5 animals were used to which no active ingredient was administered and for comparison a group of 5 animals were administered melphalan alone.

For `N[C@@H](Cc1ccc(N(CCCl)CCCl)cc1)C(=O)[O-].N[C@@H](Cc1ccc(N(CCCl)CCCl)cc1)C(=O)[O-].O.O.[Cu+2]` [Cu(melphalan)2], the “kidney weight and kidney volume compared with the control (FIG. 5)” value was “significantly lower kidney weight and kidney volume”; the “lung weight compared with the control and with melphalan alone (FIG. 6)” value was “reduced”.
